{"source": "patent US12329733B2", "about": "“Acetyl-leucine or a pharmaceutically acceptable salt thereof for improved mobility and cognitive function” (INTRABIO LTD., priority 2016, dated 2025)", "key": {"[1]": {"test_system": "subjects with no apparent dysfunction in cognitive ability or movement/balance", "assay": "Psychomotor Vigilance Task (Mind Metrics App, 10 trials per test)", "assay_type": "in vivo, human", "conditions": "for Statistically significant improvement in PVT performance on treatment?: 5 g/day; for % change in Reaction Time: on-treatment vs baseline", "excerpt": "For example, the Psychomotor Vigilance Task (PVT) is a sustained-attention, reaction-timed task that measures the speed with which subjects respond to a visual stimulus. The subject monitors a screen and presses the screen as quickly as possible upon the appearance of visual stimuli. The visual stimuli will then disappear and reappear (at irregular time intervals) e.g., 10 times over the course of the test, with the subject touching the screen as quickly as possible upon each reappearance. Test performance is quantified from an average of the e.g. 10 reaction times. The subject's reaction speed and alertness was assessed using the Mind Metrics App (Psychomotor Vigilance Task, 10 trials per test). The Psychomotor Vigilance Task (PVT) is a sustained-attention, reaction-timed task that measures the speed with which subjects respond to a visual stimulus. The subject is required to monitor a screen and press the screen as quickly as possible upon the appearance of visual stimuli. The visual stimuli will then disappear and reappear (at irregular time intervals) 10 times over the course of the test, with the subject touching the screen as quickly as possible upon each reappearance. Test performance is quantified from an average of the 10 reaction times. […] The subject was assessed for 2 weeks prior to taking acetyl-leucine, which constitutes the baseline period."}, "[2]": {"test_system": "patients with cerebellar ataxia of different etiologies", "conditions": "in responders, ref (8); cited from earlier work"}, "[3]": {"test_system": "cerebellar patients", "conditions": "cited from earlier work"}, "[4]": {"test_system": "patients with postural imbalance / gait disorder; subjects", "assay": "clinical examination and patient/family reports of balance, gait, dizziness and falls", "assay_type": "in vivo, human", "conditions": "for balance (subjective): 5 g/day", "excerpt": "In addition to the mobility assessments disclosed above, mobility in a subject having a mobility disorder associated with ageing may be tested, for example, using assessments of balance and/or through monitoring the number of falls experienced by the subject."}, "[5]": {"test_system": "patient with postural imbalance", "assay": "timed Up and Go test (stance up-and-go test)", "assay_type": "in vivo, human", "conditions": "Example 6: 5 g/day for 1 month; baseline 25.4 sec", "excerpt": "The patient was examined clinically by means of the following clinical assessments: maximal distance to walk; timed Up and Go test; Scale for the Assessment and Rating of Ataxia (SARA)."}, "[6]": {"test_system": "subject suffering from imbalance and gait disorder", "assay": "home setting “get up and go test”", "assay_type": "in vivo, human", "conditions": "Example 1: person, 4.5 g/day", "experimental": "“Mobility” refers to the ability of a subject to move. Mobility may be assessed in the elderly using one or more simple tests. As illustrated in the Examples, the “get up and go” test is a simple test capable of measuring mobility. In this test, the speed of sit to stand and walking to a target point is analysed, suitably as described in the Examples. For example, the test may begin with the subject sitting in a chair. At the start of the stop clock, the subject should rise unaided and walk to a target point. The target point may be 2-10 m away, optionally 4-6 m away. The stop clock should be stopped upon the subject reaching the target point. Any change in mobility, for example, over time or through treatment, can be monitored by using the “get up and go” test at two or more time points and comparing the results, again as illustrated in the Examples. Other suitable tests for measuring mobility include those used in the Elderly Mobility Scale (EMS), a 20-point validated assessment tool for the assessment of frail elderly subjects (9), considering locomotion, balance and key position changes. The ability of the subject to move was measured in a home setting “get up and go test”. This test involved the subject rising unaided from their chair and walking the length of their living area to their kitchen. […]"}}, "data": [{"smiles": "CC(=O)NC(CC(C)C)C(=O)O", "note": "(racemic) [acetyl-DL-leucine]", "values": [{"measurement": "Statistically significant improvement in PVT performance on treatment?", "setting": "[1]; Example 7: 66 M, p<0.0001", "result": "significant improvement in Psychomotor Vigilance Task performance"}, {"measurement": "Statistically significant improvement in PVT performance on treatment?", "setting": "[1]; Example 7: 66 M, p<0.0001, listed as acetyl-leucine", "result": "Yes"}, {"measurement": "% change in Reaction Time", "setting": "[1]; Example 7: 66 M", "result": "−30.86", "unit": "%"}, {"measurement": "Statistically significant improvement in PVT performance on treatment?", "setting": "[1]; Example 8: 29 M, p<0.05", "result": "small but statistically significant improvement"}, {"measurement": "Statistically significant improvement in PVT performance on treatment?", "setting": "[1]; Example 8: 29 M, p<0.05, listed as acetyl-leucine", "result": "Yes"}, {"measurement": "% change in Reaction Time", "setting": "[1]; Example 8: 29 M", "result": "−3.593", "unit": "%"}, {"measurement": "Statistically significant improvement in PVT performance on treatment?", "setting": "[1]; Example 9: 55 F", "result": "not associated with significant changes"}, {"measurement": "Statistically significant improvement in PVT performance on treatment?", "setting": "[1]; Example 9: 55 F, listed as acetyl-leucine", "result": "No"}, {"measurement": "% change in Reaction Time", "setting": "[1]; Example 9: 55 F", "result": 1.408, "unit": "%"}, {"measurement": "Statistically significant improvement in PVT performance on treatment?", "setting": "[1]; Example 10: […]", "result": "small, non-statistically significant decline"}, {"measurement": "Statistically significant improvement in PVT performance on treatment?", "setting": "[1]; Example 10: […], listed as acetyl-leucine", "result": "No"}, {"measurement": "% change in Reaction Time", "setting": "[1]; Example 10: […]", "result": 8.13, "unit": "%"}, {"measurement": "Statistically significant improvement in PVT performance on treatment?", "setting": "[1]; Example 11: 53 M, p<0.01", "result": "statistically significant improvements"}, {"measurement": "Statistically significant improvement in PVT performance on treatment?", "setting": "[1]; Example 11: 53 M, p<0.01, listed as acetyl-leucine", "result": "Yes"}, {"measurement": "% change in Reaction Time", "setting": "[1]; Example 11: 53 M", "result": "−10.24", "unit": "%"}, {"measurement": "Statistically significant improvement in PVT performance on treatment?", "setting": "[1]; Example 12: 48 F, p<0.001", "result": "statistically significant improvements"}, {"measurement": "Statistically significant improvement in PVT performance on treatment?", "setting": "[1]; Example 12: 48 F, p<0.001, listed as acetyl-leucine", "result": "Yes"}, {"measurement": "% change in Reaction Time", "setting": "[1]; Example 12: 48 F", "result": "−7.474", "unit": "%"}, {"measurement": "brain metabolism (PET)", "setting": "[2]", "result": "increased metabolism in the midbrain and lower brainstem"}, {"measurement": "cerebellar symptoms", "setting": "[3]; case series, ref (5)", "result": "Improvement of cerebellar symptoms"}, {"measurement": "benefit in another case series", "setting": "[3]; ref (6)", "result": "did not find benefit"}, {"measurement": "balance after ceasing treatment", "setting": "[4]; Example 1: after one-month course ceased", "result": "remained good for two weeks then deteriorated"}, {"measurement": "walking confidence / balance", "setting": "[4]; Example 1: person, 4.5 g/day, by 7-10 days of treatment", "result": "more confident walking due to improved balance"}, {"measurement": "improvements of first and second months, on further treatment", "setting": "[4]; Example 1: remains on 4.5 g per day", "result": "have continued"}, {"measurement": "improvements noticed in first month, on second treatment", "setting": "[4]; Example 1: second one-month course, 4.5 g/day", "result": "rapidly returned"}, {"measurement": "dizziness symptoms", "setting": "[4]; Example 2: person, balance disorder/senile gait disorder, 3 g/day first week then 5 g/day, Day 14", "result": "improvement of dizziness symptoms"}, {"measurement": "frequency of falls", "setting": "[4]; Example 2: person, 3 g/day first week then 5 g/day, Day 14", "result": "significant reduction in the frequency of falls"}, {"measurement": "hypokinetic-rigid syndrome", "setting": "[4]; Example 2: person, Day 14", "result": "No change"}, {"measurement": "dizziness symptoms after suspension of treatment", "setting": "[4]; Example 2: treatment suspended Day 56, re-evaluated Day 62", "result": "increase of dizziness symptoms two days after suspension of treatment"}, {"measurement": "time when improvement began", "setting": "[4]; Example 3: person", "result": "second week of treatment"}, {"measurement": "dizziness and imbalance (spouse feedback)", "setting": "[4]; Example 3: person, 3 g/day one week then 5 g/day, 22 days after beginning treatment", "result": "significant reduction of dizziness and imbalance"}, {"measurement": "gait (spouse feedback)", "setting": "[4]; Example 3: person, 22 days after beginning treatment", "result": "significant improvement of gait"}, {"measurement": "gait and imbalance (patient and child report)", "setting": "[4]; Example 4: person, 3 g/day one week then 5 g/day, 3 weeks after beginning treatment", "result": "significantly improved"}, {"measurement": "clinical examination of gait and balance", "setting": "[4]; Example 5: Day 42, 3 gram per day", "result": "significant improvement of gait and balance"}, {"measurement": "spouse report on re-evaluation", "setting": "[4]; Example 5: Day 42, 3 gram per day restarted Day 28", "result": "dramatic improvement with impact on functioning and quality of living"}, {"measurement": "falls", "setting": "[4]; Example 5: Day 42, four falls over three months before Day 0", "result": "No further falls were reported"}, {"measurement": "symptoms after medication was stopped", "setting": "[4]; Example 5: medication stopped after two weeks", "result": "worsening of symptoms"}, {"measurement": "gait (patient and spouse report)", "setting": "[4]; Example 5: patient, progressive gait disorder, 3 gram per day for two weeks", "result": "considerable improvement of gait"}, {"measurement": "improvements on lower dosage", "setting": "[4]; Example 6: 1 g/1 g/1 g for over 4 months", "result": "remained unchanged"}, {"measurement": "sway", "setting": "[4]; Example 6: 5 g/day for 1 month", "result": "became visibly calmer"}, {"measurement": "stance with feet together, tandem stance and gait", "setting": "[4]; Example 6: 5 g/day for 1 month, tandem stance and gait not possible at baseline", "result": "possible with increased omnidirectional sway"}, {"measurement": "postural stability (subjective)", "setting": "[4]; Example 6: 5 g/day for 1 month, walking and stairs", "result": "subjectively more postural stable"}, {"measurement": "frequency of falls", "setting": "[4]; Example 6: current state on 1 g/1 g/1 g, 2-3 per month before treatment", "result": "0-1 /month"}, {"measurement": "falls during therapy period", "setting": "[4]; Example 6: therapy period of 1 month, 2-3 per month before", "result": "did not record any falls"}, {"measurement": "balance (subjective)", "setting": "[4]; Example 7: 66 M", "result": "improvement in their balance"}, {"measurement": "balance (subjective)", "setting": "[4]; Example 8: 29 M", "result": "no difference in balance"}, {"measurement": "stance up-and-go test", "setting": "[5]", "result": 21.2, "unit": "s"}, {"measurement": "faster than pre-treatment in get up and go test", "setting": "[6]", "result": 25, "unit": "%"}, {"measurement": "average time taken to rise unaided from chair and walk the length of living area to kitchen", "setting": "[6]; seven consecutive days once treatment had started, prior to treatment 40±3 seconds", "result": "30 ± 2", "unit": "s"}]}]}
